Source: US9056067B2, “Pharmaceutical composition for enhancing immunity, and extract of Poria” (Sinphar Pharmaceutical Co., Ltd., priority 2003, dated 2015)

What was measured:
Type in all cases: in vivo, mice
[1] = test system: immune cells (T cells/B cells); assay: Immunity response tests (overall statement); details: Table 2 to Table 10
Experimental: The Poria extract and the purified compounds from the Poria extract by chromatography prepared according to the methods of the present invention were tested by various immunity response experiments listed in the following.

IgG = IgG secretion by spleen cells in vitro (LPS, ELISA) after oral administration
Experimental: (§1) […] […] The control group was the mice feeding with an equal volume of saline (0.85% of NaCl). Mice were sacrificed at day five, and both the serum and spleen cells were collected. The sera were subsequently used to measure the concentration of IgG, IgM and IgA. The spleen cells were plated onto a 100 mm diameter culture plate and incubated at 37° C. for three hours. The non-adherent cells containing T-lymphocytes, B-lymphocytes and NK cells were collected and properly diluted as described in each assay.
(§2) The mouse to be sacrificed was cervical dislocated and sterilized with 70% ethanol. The cardiac punctuation was performed first to withdraw the blood. After the haemagglutination, the blood sample was subjected to centrifugation and the serum was collect. For isolation of spleen cells, the peritoneum was opened to remove the spleen. The fresh spleen was transferred to a culture plate containing 10 ml of RPMI-1640 culture medium. The spleen was then ground over a fine mesh to release the spleen cells. The spleen cells suspending in the medium were then removed and transferred to a 50-ml conical centrifuge tube. The tube was subjected to centrifugation at 1300 rpm for 10 min. The supernatant was discarded and the pellet was re-suspended in 1 ml of cold RBC lysing buffer containing EDTA-NH4Cl. The cells were incubated at room temperature for 10 min, followed by washing the cells three times with culture medium by centrifugation. The spleen cells were plated onto a 100 mm diameter culture plate and incubated at 37° C. for three hours. The non-adherent cells containing T-lymphocytes, B-lymphocytes and NK cells were collected and properly diluted as described in each assay.
(§3) An ELISA was performed in our study to measure the immunoglobulin concentration. Briefly, the spleen cells (5×10^5 cells/ml) were cultured in a medium containing RPMI 1640 supplemented with 10% fetal bovine serum (FBS), 2 mM L-glutamine, antibiotics and 5 μg/ml lipopolysaccharide (LPS; 1 μg/10^5 cells) for 5 days. LPS is a polyclonal activator of B lymphocyte. Culture spleen cell supernatants were collected at day 3, 4 and 5. IgA, IgG and IgM concentrations were measured using a sandwich ELISA technique.
A 96-well microtiter plate (Nunc-Immuno Plate, MaxiSorp, Nunc, Denmark) was precoated with 100 ng/well of capture antibodies at 4° C. overnight. The capture antibody was a rabbit anti-mouse IgG+IgA+IgM antibody (Zymed Laboratory, CA). The plate was washed with PBS-0.05% Tween 20 solution and blocked with PBS-1% gelatin. After the blocking, the properly diluted samples (1/10^5 diluted) and standard IgG ranged from 0.25 μg/ml to 0.039 μg/ml were added (100 μl/well). The plate was then incubated at 37° C. for 2 h. At the end of incubation, HRP-conjugated goat anti-mouse IgG (1:2,000 diluted; anti-whole IgG molecule; Zymed Laboratory, CA) was added (100 μl/well). After 1 h of incubation at 37° C., the color was developed using a substrate solution containing 0.1 M citrate buffer, pH 4.5, 0.03% H2O2 and 0.1% of o-phenylenediamine. The absorbence at 490 nm in each well was read using an ELISA reader (EL311, BioTek, VT), and the data was analyzed using log-logit model.

IgA = IgA secretion by spleen cells in vitro (LPS, ELISA) after oral administration
Experimental: as §1, §2, §3
The procedure for IgA assay was similar to that for IgG assay, except that the samples were 1/10^4 diluted and standard IgA ranged from 1 μg/ml to 0.0156 μg/ml were added (100 μl/well). The secondary antibody for the assay was HRP-conjugated goat anti-mouse IgA (1:1000 diluted; Zymed Laboratory, CA).

[2] = oral 10 mg/kg/day for four days
[3] = oral 20 mg/kg/day for four days

| Compound | Dosage at which potent [1] | Immunity enhancement in immune cells (T cells/B cells) (in words) [1] | IgG secretion by spleen cell, incubation day 3 (IgG; oral 5 mg/kg/day for four days) | IgG secretion by spleen cell, incubation day 4 (IgG; oral 5 mg/kg/day for four days) | IgG secretion by spleen cell, incubation day 5 (IgG; oral 5 mg/kg/day for four days) | IgG secretion by spleen cell, incubation day 3 (IgG; [2]) | IgG secretion by spleen cell, incubation day 4 (IgG; [2]) | IgG secretion by spleen cell, incubation day 5 (IgG; [2]) | IgG secretion by spleen cell, incubation day 3 (IgG; [3]) | IgG secretion by spleen cell, incubation day 4 (IgG; [3]) | IgG secretion by spleen cell, incubation day 5 (IgG; [3]) | IgA secretion by spleen cell, incubation day 3 (IgA; oral 5 mg/kg/day for four days) | IgA secretion by spleen cell, incubation day 4 (IgA; oral 5 mg/kg/day for four days) | IgA secretion by spleen cell, incubation day 5 (IgA; oral 5 mg/kg/day for four days) | IgA secretion by spleen cell, incubation day 3 (IgA; [2]) | IgA secretion by spleen cell, incubation day 4 (IgA; [2]) | IgA secretion by spleen cell, incubation day 5 (IgA; [2]) | IgA secretion by spleen cell, incubation day 3 (IgA; [3]) | IgA secretion by spleen cell, incubation day 4 (IgA; [3]) | IgA secretion by spleen cell, incubation day 5 (IgA; [3]) | further results |
| --- | --- | --- | --- | --- | --- | --- | --- | --- | --- | --- | --- | --- | --- | --- | --- | --- | --- | --- | --- | --- | --- |
| C=C(CC[C@@H](C(=O)O)[C@H]1[C@H](O)C[C@@]2(C)C3=CC[C@H]4C(C)(C)C(=O)CC[C@]4(C)C3=CC[C@]12C)C(C)C [K3] | potent at dosage low than 2.5 or 5.0 | immunity enhancement activities | 3.85 ± 0.73 | 3.43 ± 0.40 | 4.46 ± 0.95 | 3.18 ± 0.55 | 3.16 ± 0.62 | 3.48 ± 0.43 | 6.12 ± 0.70 | 7.10 ± 1.39 | 8.56 ± 1.34 | 32.83 ± 7.00 | 27.37 ± 5.83 | 21.96 ± 4.17 | 26.57 ± 3.68 | 28.97 ± 5.95 | 18.87 ± 2.66 | 43.08 ± 4.05 | 43.45 ± 5.92 | 30.50 ± 3.60 | Effect on IgG secretion by spleen cells (in words) (IgG; oral): significantly suppressed; Effect on IgA secretion by spleen cells (in words) (IgA; oral): significantly suppressed |
| C=C(CCC(C(=O)O)C1C(O)CC2(C)C3=CCC4C(C)(CCC(O)C4(C)C)C3=CCC12C)C(C)C (stereo not shown) [K4] | potent at dosage low than 2.5 or 5.0 | immunity enhancement activities | 12.55 ± 3.08 | 12.99 ± 0.86 | 18.29 ± 0.92 | 6.54 ± 1.43 | 15.15 ± 5.16 | 22.59 ± 5.35 | 21.23 ± 3.19 | 19.11 ± 4.23 | 22.56 ± 3.84 | 55.56 ± 4.71 | 79.51 ± 3.74 | 106.69 ± 7.29 | 66.43 ± 5.26 | 95.39 ± 10.08 | 121.97 ± 12.69 | 119.59 ± 15.08 | 101.53 ± 25.08 | 133.16 ± 20.09 | Dose with increase in IgA secretion by spleen cells (IgA; oral, PCM-K1 at day 3 and day 5): ≥ 5 mg/kg/day |
